In patent US20120088759A1, “THIAZOLIDIN-4-ONE AND [1,3]-THIAZINAN-4-ONE COMPOUNDS AS OREXIN RECEPTOR ANTAGONISTS” (priority 2009, published 2012):

Tests used:
human orexin-2 receptor = target: T1, human orexin-2 receptor (Homo sapiens, UniProt O43614); assay: FLIPR intracellular calcium assay, orexin receptor antagonistic activity (OX2); format: cell-based; conditions: CHO cells expressing human orexin-2 receptor; 3 nM orexin-A; normalized to on-plate reference; *n = geometric mean from n values
T1 construct: expressed in transfected cells; host or cells: CHO (Chinese hamster ovary) cells, kept under G418
T1 sequence (O43614 1-444): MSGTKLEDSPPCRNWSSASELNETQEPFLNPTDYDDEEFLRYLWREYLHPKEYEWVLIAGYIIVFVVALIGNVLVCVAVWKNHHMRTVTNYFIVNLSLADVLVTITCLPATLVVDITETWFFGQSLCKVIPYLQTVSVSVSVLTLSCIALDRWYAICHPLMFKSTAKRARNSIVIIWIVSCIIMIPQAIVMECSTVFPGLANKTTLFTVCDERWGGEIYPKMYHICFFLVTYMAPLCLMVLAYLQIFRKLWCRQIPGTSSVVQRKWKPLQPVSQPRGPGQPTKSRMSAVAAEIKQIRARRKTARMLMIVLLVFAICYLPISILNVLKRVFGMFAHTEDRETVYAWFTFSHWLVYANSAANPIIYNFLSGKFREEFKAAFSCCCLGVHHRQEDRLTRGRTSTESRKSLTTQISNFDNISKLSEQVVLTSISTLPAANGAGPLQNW
Description: (§1) The orexin receptor antagonistic activity of the compounds of formula (I) is determined in accordance with the following experimental method.
(§2) Chinese hamster ovary (CHO) cells expressing the human orexin-1 receptor and the human orexin-2 receptor, respectively, are grown in culture medium (Ham F-12 with L-Glutamine) containing 300 μg/ml G418, 100 U/ml penicillin, 100 μg/ml streptomycin and 10% heat inactivated fetal calf serum (FCS). The cells are seeded at 20′000 cells/well into 384-well black clear bottom sterile plates (Greiner). The seeded plates are incubated overnight at 37° C. in 5% CO2.
(§3) Human orexin-A as an agonist is prepared as 1 mM stock solution in MeOH:water (1:1), diluted in HBSS containing 0.1% bovine serum albumin (BSA), NaHCO3: 0.375 g/l and 20 mM HEPES for use in the assay at a final concentration of 3 nM.
(§4) Antagonists are prepared as 10 mM stock solution in DMSO, then diluted in 384-well plates using DMSO followed by a transfer of the dilutions into in HBSS containing 0.1% bovine serum albumin (BSA), NaHCO3: 0.375 g/l and 20 mM HEPES. On the day of the assay, 50 μl of staining buffer (HBSS containing 1% FCS, 20 mM HEPES, NaHCO3: 0.375 g/l, 5 mM probenecid (Sigma) and 3 μM of the fluorescent calcium indicator fluo-4 AM (1 mM stock solution in DMSO, containing 10% pluronic) is added to each well. The 384-well cell-plates are incubated for 50 min at 37° C. in 5% CO2 followed by equilibration at rt for 30-120 min before measurement.
(§5) Within the Fluorescent Imaging Plate Reader (FLIPR Tetra, Molecular Devices), antagonists are added to the plate in a volume of 10 μl/well, incubated for 10 min and finally 10 μl/well of agonist is added. Fluorescence is measured for each well at 1 second intervals, and the height of each fluorescence peak is compared to the height of the fluorescence peak induced by 3 nM orexin-A with vehicle in place of antagonist. For each antagonist, the IC50 value (the concentration of compound needed to inhibit 50% of the agonistic response) is determined and normalized using the obtained IC50 value of a on-plate reference compound. Optimized conditions were achieved by adjustment of pipetting speed and cell splitting regime. The calculated IC50 values of the compounds may fluctuate depending on the daily cellular assay performance. Fluctuations of this kind are known to those skilled in the art.

human orexin-1 receptor = target: T2, human orexin-1 receptor (Homo sapiens, UniProt O43613); assay: FLIPR intracellular calcium assay, orexin receptor antagonistic activity (OX1); format: cell-based; conditions: CHO cells expressing human orexin-1 receptor; 3 nM orexin-A; normalized to on-plate reference; *n = geometric mean from n values
T2 construct: expressed in transfected cells; host or cells: CHO (Chinese hamster ovary) cells, kept under G418
T2 sequence (O43613 1-425): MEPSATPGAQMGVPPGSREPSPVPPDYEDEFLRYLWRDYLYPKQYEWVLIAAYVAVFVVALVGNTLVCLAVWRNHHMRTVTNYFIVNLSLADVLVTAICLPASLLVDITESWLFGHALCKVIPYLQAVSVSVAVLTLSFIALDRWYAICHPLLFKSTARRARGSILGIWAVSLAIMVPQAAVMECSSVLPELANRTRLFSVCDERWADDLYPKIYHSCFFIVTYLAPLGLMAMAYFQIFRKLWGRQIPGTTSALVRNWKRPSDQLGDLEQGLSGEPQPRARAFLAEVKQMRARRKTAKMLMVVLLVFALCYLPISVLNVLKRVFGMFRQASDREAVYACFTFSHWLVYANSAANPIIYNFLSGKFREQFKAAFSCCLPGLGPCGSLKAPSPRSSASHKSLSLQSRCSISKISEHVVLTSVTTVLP
Description: as §1, §2, §3, §4, §5

Compound	IC50 (human orexin-2 receptor)	IC50 (human orexin-1 receptor)
COc1cccc(OC)c1C1SCC(=O)N1Cc1ccc(SC(F)(F)F)cc1 (centres unmarked) [Example 139, 2-(2,6-Dimethoxy-phenyl)-3-(4-trifluoromethylsulfanyl-benzyl)thiazolidin-4-one]	30 nM	440 nM
COc1cncc(OC)c1C1SCC(=O)N1Cc1ccc(OC(F)(F)F)cc1 (centres unmarked) [Example 28, 2-(3,5-Dimethoxy-pyridin-4-yl)-3-(4-trifluoromethoxy-benzyl)-thiazolidin-4-one]	16 nM	208 nM
COc1cccc(OC)c1C1SCC(=O)N1Cc1ccc(OC(F)(F)F)cc1 (centres unmarked) [Example 2, 2-(2,6-Dimethoxy-phenyl)-3-(4-trifluoromethoxy-benzyl)-thiazolidin-4-one]	15 nM	144 nM
COc1cccc(OC)c1C1SCC(=O)N1Cc1ccc(Oc2cc(C)ccn2)cc1 (centres unmarked) [Example 284, 2-(2,6-Dimethoxy-phenyl)-3-[4-(4-methyl-pyridin-2-yloxy)-benzyl]-thiazolidin-4-one]	7 nM	344 nM
COc1ccc2cc(CN3C(=O)C(C)SC3c3c(OC)cccc3OC)ccc2c1 (centres unmarked) [Example 31, 2-(2,6-Dimethoxy-phenyl)-3-(6-methoxy-naphthalen-2-ylmethyl)-5-methyl-thiazolidin-4-one]	30 nM	11 nM
COc1cc(C)cc(OC)c1C1SC(C)C(=O)N1Cc1ccc(OC(F)(F)F)cc1 (centres unmarked) [Example 35, 2-(2,6-Dimethoxy-4-methyl-phenyl)-5-methyl-3-(4-trifluoromethoxy-benzyl)-thiazolidin-4-one]	130 nM	170 nM
COc1cccc(OC)c1C1N(Cc2ccc(OC(F)(F)F)cc2)C(=O)CS1(=O)=O (centres unmarked) [Example 288, 2-(2,6-Dimethoxy-phenyl)-1,1-dioxo-3-(4-trifluoromethoxy-benzyl)-thiazolidin-4-one]	6 nM	166 nM
COc1cccc(OC)c1C1SCC(=O)N1Cc1cccc(OC(F)(F)F)c1 (centres unmarked) [Example 119, 2-(2,6-Dimethoxy-phenyl)-3-(3-trifluoromethoxy-benzyl)-thiazolidin-4-one]	61 nM	355 nM
CCOc1ccc(CN2C(=O)CSC2c2c(OC)cccc2OC)cc1 (centres unmarked) [Example 6, 2-(2,6-Dimethoxy-phenyl)-3-(4-ethoxy-benzyl)-thiazolidin-4-one]	24 nM	140 nM
2-[2-(2-Hydroxy-ethoxy)-6-methoxy-phenyl]-3-(4-trifluoromethoxy-benzyl)-thiazolidin-4-one [Example 268]	45 nM	1840 nM
CCOc1ccc(CN2C(=O)CSC2c2c(OC)ccc3c2OCCO3)cc1 (centres unmarked) [Example 9, 3-(4-Ethoxy-benzyl)-2-(6-methoxy-2,3-dihydro-benzo[1,4]dioxin-5-yl)-thiazolidin-4-one]	39 nM	326 nM
COc1cccc(OC)c1C1SCC(=O)N1Cc1ccc(OC(C)(C)C)cc1 (centres unmarked) [Example 3, 3-(4-tert-Butoxy-benzyl)-2-(2,6-dimethoxy-phenyl)-thiazolidin-4-one]	120 nM	1420 nM
CCOc1ccccc1C1SCC(=O)N1Cc1ccc2c(c1)OCCO2 (centres unmarked) [Example 72, 3-(2,3-Dihydro-benzo[1,4]dioxin-6-ylmethyl)-2-(2-ethoxy-phenyl)-thiazolidin-4-one]	115 nM	778 nM
COc1cccc(OC)c1C1SC(C)C(=O)N1Cc1ccc(OC(F)(F)F)cc1 (centres unmarked) [Example 17, 2-(2,6-Dimethoxy-phenyl)-5-methyl-3-(4-trifluoromethoxy-benzyl)-thiazolidin-4-one]	15 nM	363 nM
COc1cc(F)cc(OC)c1C1SCC(=O)N1Cc1ccc(OC(F)(F)F)cc1 (centres unmarked) [Example 33, 2-(4-Fluoro-2,6-dimethoxy-phenyl)-3-(4-trifluoromethoxy-benzyl)-thiazolidin-4-one]	8 nM	105 nM
COc1cccc(OC)c1C1SCC(=O)N1Cc1ccc(Oc2ccccn2)cc1 (centres unmarked) [Example 277, 2-(2,6-Dimethoxy-phenyl)-3-[4-(pyridin-2-yloxy)-benzyl]-thiazolidin-4-one]	8 nM	411 nM
COc1ccc2cc(CN3C(=O)CSC3c3c(OC)cccc3OC)ccc2c1 (centres unmarked) [Example 32, 2-(2,6-Dimethoxy-phenyl)-3-(6-methoxy-naphthalen-2-ylmethyl)-thiazolidin-4-one]	6 nM	15 nM
CCOc1ccccc1CN1C(=O)CSC1c1c(OC)cccc1OC (centres unmarked) [Example 101, 2-(2,6-Dimethoxy-phenyl)-3-(2-ethoxy-benzyl)-thiazolidin-4-one]	51 nM	488 nM
COc1cccc(OC)c1C1SCC(=O)N1Cc1ccc(Oc2cncnc2)cc1 (centres unmarked) [Example 276, 2-(2,6-Dimethoxy-phenyl)-3-[4-(pyrimidin-5-yloxy)-benzyl]-thiazolidin-4-one]	121 nM	1590 nM
COc1cccc(OC)c1C1SC(C)C(=O)N1Cc1ccc2ccccc2n1 (centres unmarked) [Example 30, 2-(2,6-Dimethoxy-phenyl)-5-methyl-3-quinolin-2-ylmethyl-thiazolidin-4-one]	442 nM	356 nM
COc1ccc2cccnc2c1C1SCC(=O)N1Cc1ccc(OC(F)(F)F)cc1 (centres unmarked) [Example 24, 2-(7-Methoxy-quinolin-8-yl)-3-(4-trifluoromethoxy-benzyl)-thiazolidin-4-one]	14 nM	278 nM
COc1cccc(OC)c1C1SCC(=O)N1Cc1ccc2ccccc2c1 (centres unmarked) [Example 8, 2-(2,6-Dimethoxy-phenyl)-3-naphthalen-2-ylmethyl-thiazolidin-4-one]	23 nM	83 nM
2-[2-(2-Hydroxy-ethoxy)-6-methoxy-phenyl]-3-(4-isopropoxy-benzyl)-thiazolidin-4-on [Example 269]	25 nM	2060 nM
COc1cccc(OC)c1C1SC(C)C(=O)N1Cc1ccc2ccccc2c1 (centres unmarked) [Example 14, 2-(2,6-Dimethoxy-phenyl)-5-methyl-3-naphthalen-2-ylmethyl-thiazolidin-4-one]	44 nM	31 nM
CCOc1ccc(CN2C(=O)CSC2c2c(OC)ccnc2OC)cc1 (centres unmarked) [Example 26, 2-(2,4-Dimethoxy-pyridin-3-yl)-3-(4-ethoxy-benzyl)-thiazolidin-4-one]	126 nM	4300 nM
COc1ccc(Oc2ccc(CN3C(=O)CSC3c3c(OC)cccc3OC)cc2)nc1 (centres unmarked) [Example 286, 2-(2,6-Dimethoxy-phenyl)-3-[4-(5-methoxy-pyridin-2-yloxy)-benzyl]-thiazolidin-4-one]	52 nM	553 nM
COc1cc(C2SC(C)C(=O)N2Cc2nc3ccccc3[nH]2)ccc1OCc1ccccc1 (centres unmarked) [Example 265, 3-(1H-Benzoimidazol-2-ylmethyl)-2-(4-benzyloxy-3-methoxy-phenyl)-5-methyl-thiazolidin-4-one]	533 nM	2630 nM
CCOc1ccccc1C1SCC(=O)N1Cc1ccc(F)c(F)c1 (centres unmarked) [Example 65, 3-(3,4-Difluoro-benzyl)-2-(2-ethoxy-phenyl)-thiazolidin-4-one]	21 nM	1430 nM
